Measured values taken from article PMC6858373 (Scientific Reports, 2019).
Structures can show the parent of a compound that is named as a salt. Where two headings read alike, the source gives them in different places.

Key:
[1] = biological target: T1, FGF14:Nav1.6 C-tail complex (Homo sapiens, UniProt Q92915+Q9UQD0); assay: Split-luciferase complementation assay (LCA) in Clone V double stable HEK293 cells; type: cell-based; conditions: for Split Luciferase Assay Z-score Set 1 / Split Luciferase Assay Z-score Set 2: normalized to on-plate 0.3% DMSO controls
T1 construct: polymerase chain reaction (PCR) amplification of the FGF14 open reading frame (nt 1–855); C-terminal fragment of Nav1.6 (amino acids 1763–1976) fused with CD4ΔC-tail (amino acids 1–395); expressed in transfected cells

[2] = biological target: full-length P. pyralis luciferase (Photinus pyralis, UniProt P08659, K549A/L550V/N119G/N50D/S548I); type: cell-based; conditions: CC_NCI screening; normalized to on-plate 0.3% DMSO controls
Clone V cells = conditions: human
in vitro = conditions: human
[3] = CC_NCI screening, biological replicate Set 1
[4] = CC_NCI screening, biological replicate Set 1, normalized to on-plate 0.3% DMSO controls (n=16 per plate)
[5] = CC_NCI screening, biological replicate Set 2
[6] = CC_NCI screening, biological replicate Set 2, normalized to on-plate 0.3% DMSO controls (n=16 per plate)
[7] = average of Set 1 and Set 2, normalized to 0.3% DMSO controls

T1 sequence (Q92915 1-252 isoform Q92915-2): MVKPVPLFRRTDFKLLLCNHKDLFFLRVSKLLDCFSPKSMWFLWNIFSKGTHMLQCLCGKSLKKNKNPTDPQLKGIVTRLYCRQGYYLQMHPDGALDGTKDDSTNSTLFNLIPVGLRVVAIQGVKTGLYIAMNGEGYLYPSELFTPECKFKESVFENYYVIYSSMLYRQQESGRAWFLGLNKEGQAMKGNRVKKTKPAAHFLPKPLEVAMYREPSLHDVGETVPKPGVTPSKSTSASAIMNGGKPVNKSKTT
T1 sequence (Q9UQD0 1763-1976 limits assumed): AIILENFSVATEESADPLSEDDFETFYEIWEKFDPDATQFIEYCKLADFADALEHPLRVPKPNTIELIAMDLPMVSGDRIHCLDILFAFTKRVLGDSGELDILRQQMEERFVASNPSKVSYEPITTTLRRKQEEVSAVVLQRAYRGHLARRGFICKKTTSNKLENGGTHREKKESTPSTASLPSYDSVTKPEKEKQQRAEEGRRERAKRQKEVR
Chain of full-length P. pyralis luciferase (P08659 whole entry N50D/N119G/S548I/K549A/L550V, looked up): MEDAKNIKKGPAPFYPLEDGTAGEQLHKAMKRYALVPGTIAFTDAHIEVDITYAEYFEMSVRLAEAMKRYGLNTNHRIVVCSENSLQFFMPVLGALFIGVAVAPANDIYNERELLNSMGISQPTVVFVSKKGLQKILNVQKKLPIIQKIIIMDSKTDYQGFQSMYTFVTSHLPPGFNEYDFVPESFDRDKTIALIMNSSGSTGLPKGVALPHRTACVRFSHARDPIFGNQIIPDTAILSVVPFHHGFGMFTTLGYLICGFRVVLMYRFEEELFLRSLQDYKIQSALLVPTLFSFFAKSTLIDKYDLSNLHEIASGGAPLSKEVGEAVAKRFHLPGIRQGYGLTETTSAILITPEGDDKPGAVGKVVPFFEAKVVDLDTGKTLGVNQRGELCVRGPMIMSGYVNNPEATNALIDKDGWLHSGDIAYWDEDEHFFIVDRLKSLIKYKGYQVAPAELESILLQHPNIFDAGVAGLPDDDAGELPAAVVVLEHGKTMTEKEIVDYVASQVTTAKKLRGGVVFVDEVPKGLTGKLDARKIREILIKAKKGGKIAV

Row | Compound | Split Luciferase Assay Z-score Set 1 [1, 3] | Split Luciferase Assay % Lum Set 1 [1, 4] | Split Luciferase Assay Z-score Set 2 [1, 5] | Split Luciferase Assay %Lum Set 2 [1, 6] | Split Luciferase Assay %Lum Avg [1, 7] | Luciferase Assay % Lum (full-length luciferase counter-screen) [2] | Luciferase Assay Z-score (full-length luciferase counter-screen) [2] | Toxicity Assay Z-score (CTB cell viability) (Clone V cells) | viability (in vitro) | Toxicity Assay Z-score (CTB cell viability) (Clone V cells; 16 h, 30 µM) | viability at 16 h, 30 µM (in vitro; Clone V cells) | viability at 16 h, 30 µM (in vitro) | Z-score (LCA primary screening) ([1]; 30 µM, 384-well, average of primary screening (n = 2), vs on-plate 0.3% DMSO) | IMin (% Luminescence) ([1]; antagonists, Clone V cells, 384-well, normalized to DMSO) | IC50 ([1]; estimated, 8-point dose response 0.25-30 µM, n = 4 per concentration, library compounds, read-out: IC50) | Split Luciferase Assay % Lum Set 1 [1] | Split Luciferase Assay %Lum Avg [1] | Split Luciferase Assay %Lum Set 2 [1]
1 | COc1cc(O)c2c(c1)[C@H]1O[C@@H]1C[C@H](O)[C@H](O)C(=O)/C=C\C[C@H](C)OC2=O [HYPOTHEMYCIN] | -3.75 | 53.59% | -4.16 | 48.89% | 51.24% | 72.32% | -3.54 | 0.42 | 103% | – | – | – | – | – | – | – | – | –
2 | CC(=O)[C@]1(O)Cc2c(O)c3c(c(O)c2[C@@H](O[C@H]2C[C@H](N)[C@H](O)[C@H](C)O2)C1)C(=O)c1ccccc1C3=O [Idarubicin hydrochloride] | 0.12 | 101.43% | -0.69 | 91.55% | 96.49% | 114.41% | 1.85 | – | – | 1.79 | 113% | – | – | – | – | – | – | –
3 | O=P1(NCCCl)OCCCN1CCCl (stereo not drawn) [Ifosfamide] | 1.26 | 115.56% | -0.01 | 99.87% | 107.71% | 96.59% | -0.44 | 0.82 | 106% | – | – | – | – | – | – | – | – | –
4 | CC(C)Cn1cnc2c(N)nc3ccccc3c21 [Imiquimod] | 1.35 | 116.65% | 1.01 | 112.35% | 114.50% | 104.72% | 0.60 | – | – | 1.03 | – | 107% | – | – | – | – | – | –
5 | Cc1[nH]c2ccccc2c1CCNCc1ccc(/C=C/C(=O)NO)cc1 [LBH-589] | -1.99 | 75.34% | -0.18 | 97.79% | 86.56% | 101.54% | 0.20 | – | – | 0.78 | 106% | – | – | – | – | – | – | –
6 | O=c1cc(N2CCOCC2)oc2c(-c3ccccc3)cccc12 [LY 294002] | -0.94 | 88.38% | -1.87 | 76.98% | 82.68% | 80.46% | -2.50 | – | – | -0.14 | – | 99% | – | – | – | – | – | –
7 | CN(C)C[C@@H]1CCn2cc(c3ccccc32)C2=C(C(=O)NC2=O)c2cn(c3ccccc23)CCO1 [LY 333531, reference compound] | -4.72 | 41.64% | -5.94 | 27.05% | 34.34% | 78.46% | -2.76 | – | – | 0.14 | – | 101% | −5.33 | 34.34 % Luminescence | 12.2 µM | – | – | –
8 | O=NN(CCCl)C(=O)NC1CCCCC1 [Lomustine] | 0.12 | – | 2.53 | – | – | 109.33% | 1.20 | 0.41 | 103% | – | – | – | – | – | – | 101.43% | 116.25% | 131.08%
9 | CC1(C)CNc2cc(NC(=O)c3cccnc3NCc3ccncc3)ccc21 [MOTESANIB] | -1.77 | 78.05% | -0.86 | 89.47% | 83.76% | 76.36% | -3.03 | – | – | -0.04 | 99.7% | – | – | – | – | – | – | –
